Tested on: PDC 521955-158-R6-J3 spheroids, viability
Assay: Anticancer human tumor 521955-158-R6-J3-PDC patient-derived pancreatic carcinoma cell line growth inhibition [TAK]
Conditions: spheroids with HUVEC and MSC; for IC50: curve of first compound; for viability, T/C: stronger effect = lower value
Procedure, shortened: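 Tumor cells were grown as spheroids with HUVEC and hMSC (60:25:15) and treated with targeted agents combined with TAK-243 or ipatasertib. Drugs were tested in half-log steps down from near the clinical Cmax, or from 10 microM where Cmax was unknown.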
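Note: spheroids exposed to drugs for 7 days before readout.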
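Throughout, for viability, T/C: 100% = DMSO vehicle control viability.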

Q: With `CC(=O)Nc1cccc(-n2c(=O)n(C3CC3)c(=O)c3c(Nc4ccc(I)cc4F)n(C)c(=O)c(C)c32)c1` + CC(C)NCC(C(=O)N1CCN(c2ncnc3c2C(C)CC3O)CC1)c1ccc(Cl)cc1 as the molecule, how does the IC50 (second compound 0.3 µM) read?
A: The IC50 was 7.12 nM.

Q: And the IC50 (second compound 0.949 µM)?
A: Its IC50 is 2.58 nM.

Q: What about the IC50 (second compound 3 µM) of the same molecule?
A: The IC50 was 1.82 nM.

Q: What about the IC50 (second compound 9.49 µM) of the same molecule?
A: The IC50 was 2.3 nM.

Q: And the IC50 (second compound 30 µM)?
A: Its IC50 is 1.64 nM.

Q: And the viability, T/C (second compound 0.3 µM, first compound 94.9 pM)?
A: Its viability, T/C is 79.6%.

Q: What about the viability, T/C (second compound 0.3 µM, first compound 0.0003 µM) of the same molecule?
A: Its viability, T/C is 75.7%.

Q: What about the viability, T/C (second compound 0.3 µM, first compound 0.000949 µM) of the same molecule?
A: The viability, T/C was 67.9%.

Q: What about the viability, T/C (second compound 0.3 µM, first compound 0.003 µM) of the same molecule?
A: The viability, T/C was 58.8%.

Q: And the viability, T/C (second compound 0.3 µM, first compound 0.00949 µM)?
A: Its viability, T/C is 46.8%.

Q: And the viability, T/C (second compound 0.3 µM, first compound 0.03 µM)?
A: The viability, T/C was 35.6%.

Q: And the viability, T/C (second compound 0.949 µM, first compound 94.9 pM)?
A: The viability, T/C was 85.6%.

Q: And the viability, T/C (second compound 0.949 µM, first compound 0.0003 µM)?
A: The viability, T/C was 73.7%.

Q: And the viability, T/C (second compound 0.949 µM, first compound 0.000949 µM)?
A: Its viability, T/C is 58.5%.

Q: What about the viability, T/C (second compound 0.949 µM, first compound 0.003 µM) of the same molecule?
A: The viability, T/C was 49%.

Q: What about the viability, T/C (second compound 0.949 µM, first compound 0.00949 µM) of the same molecule?
A: Its viability, T/C is 38.3%.

Q: And the viability, T/C (second compound 0.949 µM, first compound 0.03 µM)?
A: The viability, T/C was 25.2%.

Q: And the viability, T/C (second compound 3 µM, first compound 94.9 pM)?
A: Its viability, T/C is 78.9%.

Q: What about the viability, T/C (second compound 3 µM, first compound 0.0003 µM) of the same molecule?
A: Its viability, T/C is 62.1%.

Q: What about the viability, T/C (second compound 3 µM, first compound 0.000949 µM) of the same molecule?
A: Its viability, T/C is 54.4%.

Q: And the viability, T/C (second compound 3 µM, first compound 0.003 µM)?
A: Its viability, T/C is 49%.

Q: What about the viability, T/C (second compound 3 µM, first compound 0.00949 µM) of the same molecule?
A: The viability, T/C was 37.6%.

Q: What about the viability, T/C (second compound 3 µM, first compound 0.03 µM) of the same molecule?
A: Its viability, T/C is 22.2%.

Q: What about the viability, T/C (second compound 9.49 µM, first compound 94.9 pM) of the same molecule?
A: Its viability, T/C is 77.9%.

Q: What about the viability, T/C (second compound 9.49 µM, first compound 0.0003 µM) of the same molecule?
A: The viability, T/C was 62.8%.

Q: And the viability, T/C (second compound 9.49 µM, first compound 0.000949 µM)?
A: The viability, T/C was 53.1%.

Q: And the viability, T/C (second compound 9.49 µM, first compound 0.003 µM)?
A: Its viability, T/C is 53.4%.

Q: What about the viability, T/C (second compound 9.49 µM, first compound 0.00949 µM) of the same molecule?
A: The viability, T/C was 37.4%.

Q: And the viability, T/C (second compound 9.49 µM, first compound 0.03 µM)?
A: The viability, T/C was 15.2%.

Q: And the viability, T/C (second compound 30 µM, first compound 94.9 pM)?
A: The viability, T/C was 71.9%.

Q: And the viability, T/C (second compound 30 µM, first compound 0.0003 µM)?
A: Its viability, T/C is 59.6%.

Q: And the viability, T/C (second compound 30 µM, first compound 0.000949 µM)?
A: Its viability, T/C is 55.8%.

Q: And the viability, T/C (second compound 30 µM, first compound 0.003 µM)?
A: Its viability, T/C is 47.8%.

Q: What about the viability, T/C (second compound 30 µM, first compound 0.00949 µM) of the same molecule?
A: Its viability, T/C is 28.5%.

Q: What about the viability, T/C (second compound 30 µM, first compound 0.03 µM) of the same molecule?
A: The viability, T/C was 16.1%.

Q: Which results are given for `CC(C)CC(NC(=O)CNC(=O)c1cc(Cl)ccc1Cl)B1OC(=O)CC(CC(=O)O)(C(=O)O)O1` (stereo not given) + CC(C)NCC(C(=O)N1CCN(c2ncnc3c2C(C)CC3O)CC1)c1ccc(Cl)cc1?
A: IC50 (second compound 0.3 µM): 55.9 nM; IC50 (second compound 0.949 µM): 54.3 nM; IC50 (second compound 3 µM): 49.1 nM; IC50 (second compound 9.49 µM): 41.8 nM; IC50 (second compound 30 µM): 33.6 nM; viability, T/C (second compound 0.3 µM, first compound 0.000316 µM): 86.8%; viability, T/C (second compound 0.3 µM, first compound 0.001 µM): 92.5%; viability, T/C (second compound 0.3 µM, first compound 0.00316 µM): 106%; viability, T/C (second compound 0.3 µM, first compound 0.01 µM): 97.8%; viability, T/C (second compound 0.3 µM, first compound 0.0316 µM): 92.9%; viability, T/C (second compound 0.3 µM, first compound 0.1 µM): 6.28%; viability, T/C (second compound 0.949 µM, first compound 0.000316 µM): 84.3%; viability, T/C (second compound 0.949 µM, first compound 0.001 µM): 93.8%; viability, T/C (second compound 0.949 µM, first compound 0.00316 µM): 97.9%; viability, T/C (second compound 0.949 µM, first compound 0.01 µM): 100%; viability, T/C (second compound 0.949 µM, first compound 0.0316 µM): 89.1%; viability, T/C (second compound 0.949 µM, first compound 0.1 µM): 5.88%; viability, T/C (second compound 3 µM, first compound 0.000316 µM): 86.3%; viability, T/C (second compound 3 µM, first compound 0.001 µM): 90.7%; viability, T/C (second compound 3 µM, first compound 0.00316 µM): 92.6%; viability, T/C (second compound 3 µM, first compound 0.01 µM): 104%; viability, T/C (second compound 3 µM, first compound 0.0316 µM): 78.7%; viability, T/C (second compound 3 µM, first compound 0.1 µM): 3.93%; viability, T/C (second compound 9.49 µM, first compound 0.000316 µM): 92.7%; viability, T/C (second compound 9.49 µM, first compound 0.001 µM): 92.5%; viability, T/C (second compound 9.49 µM, first compound 0.00316 µM): 96.9%; viability, T/C (second compound 9.49 µM, first compound 0.01 µM): 98%; viability, T/C (second compound 9.49 µM, first compound 0.0316 µM): 65%; viability, T/C (second compound 9.49 µM, first compound 0.1 µM): 3.75%; viability, T/C (second compound 30 µM, first compound 0.000316 µM): 82.3%; viability, T/C (second compound 30 µM, first compound 0.001 µM): 85.2%; viability, T/C (second compound 30 µM, first compound 0.00316 µM): 85%; viability, T/C (second compound 30 µM, first compound 0.01 µM): 99.5%; viability, T/C (second compound 30 µM, first compound 0.0316 µM): 52.7%; viability, T/C (second compound 30 µM, first compound 0.1 µM): 2.76%
